Test results published in US20240245677A1, “SELECTED COMPOUNDS FOR TARGETED DEGRADATION OF BRD9” (C4 THERAPEUTICS, INC., priority 2021, published 2024).

Test system: SW982 cells
Experiment: SW982 in vitro viability assay (CellTiter-Glo, 144 hours)
Type: cell-based, human
Experimental: SW982 cells were obtained from ATCC (Catalog No. HTB-93, Manassas, VA, USA) and maintained in DMEM medium (Catalog No. 12430112, ThermoFisher Scientific, Waltham, MA, USA) supplemented with 10% fetal bovine serum (FBS) (Catalog No. 16000-044, Gibco, Grand Island, NY, USA) at 37° C. in an atmosphere of 5% CO2 in air. The cells were routinely sub-cultured to maintain cell density between 3×10^5-1.5×10^6 cells/mL, not to exceed 20 passages. The cells growing in an exponential growth phase were harvested by centrifugation at 1000 rpm and resuspended in fresh growth media. An aliquot was diluted 2× with Trypan Blue solution 0.4% (Catalog No. 15250061, ThermoFisher Scientific, Waltham, MA, USA) and cell count was determined. Cell concentration was adjusted with growth media to 1.0×10^4 cells/mL.
Compound 1 was prepared by dissolving neat compound in DMSO (Catalog No. D8418, Sigma-Aldrich, Inc., St. Louis, MO, USA) to generate 10 mM stock solution and stored at −20° C. 10 mM DMSO stock solution was serially diluted (half log) in DMSO to generate 10-point dose series (10000, 3160, 1000, 316, 100, 31.6, 10, 3.16, 1, 0.32 μM) in acoustic ready 384-well low dead volume microplates (Catalog No. LP-0200, Beckman Coulter Life Sciences, Indianapolis, IN, USA). 50 nL of serially diluted compound solutions were dispensed using the Echo 550 Acoustic Liquid Handler Handler (Beckman Coulter Life Sciences, Indianapolis, IN, USA) in duplicate to each 384-well black TC-treated microplate (Catalog No. 3571, Corning, Glendale, CA, USA). 50 nL DMSO was transferred to all control wells.
50 μL SW982 cells suspended in growth media at 1.0×10^4 cells/mL (500 cells/well) were dispensed using a Multidrop Combi Reagent Dispenser (Catalog No. 5840300, ThermoFisher Scientific, Waltham, MA, USA) to each well of 384-well black TC-treated microplates containing duplicate concentration range of test compounds and DMSO controls. Plates were spun briefly at 1000 rpm and cells were incubated at 37° C., 5% CO2 for 144 hours. Final concentration of DMSO was 0.1% for all samples.
Additional cell plates (TO plates) were prepared by dispensing cells into a blank 384-well black TC-treated microplate to represent cytostatic controls and processed for viability detection immediately after cell dispensing.
SW982 cell viability was determined based on quantification of ATP using CellTiter-Glo® 2.0 luminescent assay kit (Catalog No. G9243, Promega, Madison, WI, USA), which signals the presence of metabolically active cells. On Day 0 (Time 0) and Day 6 (144 hours) 25 μL CellTiter-Glo® reagent was added to each well of cell plates except the wells in column 24 and the luminescence was measured after 4 hours incubation at room temperature using an EnVision® Multilabel Reader (Catalog No. 2104-0010, Perkin Elmer Inc., Dumfries, VA, USA). Column 24 (cells without CellTiter-Glo® addition) was used as plate background or positive control (P). Cytostatic control value (CT0) was computed from TO plate read using untreated cell signals (UT=0) and positive control signals (PT=0) as below.
Percent response of compound-treated samples at a time point T were calculated by normalizing the signal with P and DMSO treated negative (N) controls on the same microtiter plate and the CT0 control:
The Response % is thus 100% if the CellTiter-Glo® signal equals that of the DMSO treated controls (i.e., normal cell growth), 0% if it equals that of untreated cell at TO (i.e., cytostasis), and −100% if it equals the no CellTiter-Glo® reagent controls (i.e., complete cytotoxicity).
Curve fit and GI50 determination was performed by 4 parametric logistic fit analysis using software such as GraphPad Prism software (GraphPad Software, LLC, San Diego, CA, USA). The fit was performed through minimization of the root mean squared error between observed and calculated values of the four-parameter logistic equation using the simplex optimizer of the Apache Commons Math library. […]

COc1cc(-c2cn(C)c(=O)c(C)c2C)cc(OC)c1CN1CC[C@H](N2CCN(c3ccc(N[C@H]4CCC(=O)NC4=O)cc3F)CC2)C(F)(F)C1 [Compound 1, (S)-3-((4-(4-((S)-1-(2,6-dimethoxy-4-(1,4,5-trimethyl-6-oxo-1,6-dihydropyridin-3-yl)benzyl)-3,3-difluoropiperidin-4-yl)piperazin-1-yl)-3-fluorophenyl)amino)-piperidine-2,6-dione]
viability at 0.000318 µM (Homo sapiens, SW982, 144 h, 0.318 nM, read-out: % SW982 Viability Relative to Vehicle Control at 144 hr, Mean): 96.2% | viability at 0.00101 µM (Homo sapiens, SW982, 144 h, 1.01 nM, read-out: % SW982 Viability Relative to Vehicle Control at 144 hr, Mean): 99.6% | viability at 0.00317 µM (Homo sapiens, SW982, 144 h, 3.17 nM, read-out: % SW982 Viability Relative to Vehicle Control at 144 hr, Mean): 97.2% | viability at 0.01 µM (Homo sapiens, SW982, 144 h, 10.0 nM, read-out: % SW982 Viability Relative to Vehicle Control at 144 hr, Mean): 101% | viability at 0.0317 µM (Homo sapiens, SW982, 144 h, 31.7 nM, read-out: % SW982 Viability Relative to Vehicle Control at 144 hr, Mean): 95.7% | viability at 0.1 µM (Homo sapiens, SW982, 144 h, 100 nM, read-out: % SW982 Viability Relative to Vehicle Control at 144 hr, Mean): 96.4% | viability at 0.317 µM (Homo sapiens, SW982, 144 h, 317 nM, read-out: % SW982 Viability Relative to Vehicle Control at 144 hr, Mean): 91.9% | viability at 1 µM (Homo sapiens, SW982, 144 h, 1000 nM, read-out: % SW982 Viability Relative to Vehicle Control at 144 hr, Mean): 88.6% | viability at 3.161 µM (Homo sapiens, SW982, 144 h, 3161 nM, read-out: % SW982 Viability Relative to Vehicle Control at 144 hr, Mean): 85.7% | viability at 9.99 µM (Homo sapiens, SW982, 144 h, 9990 nM, read-out: % SW982 Viability Relative to Vehicle Control at 144 hr, Mean): 84.2% | GI50 (Homo sapiens, SW982 cells, 144-hour treatment, read-out: Geometric Mean GI50): > 10 µM | Emax (Homo sapiens, SW982 cells, 144-hour treatment, read-out: Mean Emax (%) ± SD): 84.2 ± 4.6% | growth inhibition at the highest concentration tested (SW982 cells, 144-hour treatment): < 20%
